Reference: the supplement of paper PMC9663587

Columns and labels:
[1] = test system: MDAMB231; test: GRmax, 72 h; higher = less effect;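 note: breast cell lines in 384-well plates, nine doses across a 10^4 range, Dye Drop imaging of viable cells vs DMSO and time-zero plates, GR 0 means no net growth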
[2] = test system: SUM159; test: GRmax, 72 h; higher = less effect;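 note: breast cell lines in 384-well plates, nine doses across a 10^4 range, Dye Drop imaging of viable cells vs DMSO and time-zero plates, GR 0 means no net growth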
[3] = test system: SUM229PE; test: GRmax, 72 h; higher = less effect;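 note: breast cell lines in 384-well plates, nine doses across a 10^4 range, Dye Drop imaging of viable cells vs DMSO and time-zero plates, GR 0 means no net growth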
[4] = test system: CAL51; test: area over the GR curve, 72 h; higher = more effect;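 note: Dye Drop or Deep Dye Drop imaging of viable cells in 384-well plates (Hoechst nuclei, LIVE/DEAD dye), nine half-log doses, GR normalized to DMSO controls and time-zero plates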
[5] = test system: CAMA1; test: area over the GR curve, 72 h; higher = more effect;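 note: Dye Drop or Deep Dye Drop imaging of viable cells in 384-well plates (Hoechst nuclei, LIVE/DEAD dye), nine half-log doses, GR normalized to DMSO controls and time-zero plates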
[6] = test system: HCC1954; test: area over the GR curve, 72 h; higher = more effect;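 note: Dye Drop or Deep Dye Drop imaging of viable cells in 384-well plates (Hoechst nuclei, LIVE/DEAD dye), nine half-log doses, GR normalized to DMSO controls and time-zero plates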
[7] = test system: HCC38; test: area over the GR curve, 72 h; higher = more effect;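 note: Dye Drop or Deep Dye Drop imaging of viable cells in 384-well plates (Hoechst nuclei, LIVE/DEAD dye), nine half-log doses, GR normalized to DMSO controls and time-zero plates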
[8] = test system: HTERT_HME1; test: area over the GR curve, 72 h; higher = more effect
[9] = test system: MDAMB175VII; test: area over the GR curve, 72 h; higher = more effect
[10] = test system: MGH312; test: area over the GR curve, 72 h; higher = more effect
[11] = test system: SUM52PE; test: area over the GR curve, 72 h; higher = more effect
[12] = test system: ZR751; test: area over the GR curve, 72 h; higher = more effect
[13] = test system: ZR7530; test: area over the GR curve, 72 h; higher = more effect

Row | SMILES | GRmax, 72 h [1] [GR] | GRmax, 72 h [2] [GR] | GRmax, 72 h [3] [GR] | area over the GR curve [4] [GR] | area over the GR curve [5] [GR] | area over the GR curve [6] [GR] | area over the GR curve [7] [GR] | area over the GR curve [8] [GR] | area over the GR curve [9] [GR] | area over the GR curve [10] [GR] | area over the GR curve [11] [GR] | area over the GR curve [12] [GR] | area over the GR curve [13] [GR]
1 | Cc1nc(Nc2ncc(C(=O)Nc3c(C)cccc3Cl)s2)cc(N2CCN(CCO)CC2)n1 [Dasatinib] (max 10 µM) | -0.126 | 0.732 | -0.112 | 0.516 | 0.152 | 0.189 | 0.145 | 0.415 | 0.972 | 0.908 | 0.451 | 0.687 | 0.426
2 | COc1cccc2c1C(=O)c1c(O)c3c(c(O)c1C2=O)C[C@@](O)(C(=O)CO)C[C@@H]3O[C@H]1C[C@H](N)[C@H](O)[C@H](C)O1 [Doxorubicin] (max 3.162 µM) | -0.486 | -0.361 | -0.125 | 0.795 | 0.843 | 0.73 | 0.78 | 0.836 | 0.908 | 1.07 | 0.321 | 0.497 | 0.552
3 | CO[C@H]1C[C@@H]2CC[C@@H](C)[C@@](O)(O2)C(=O)C(=O)N2CCCC[C@H]2C(=O)O[C@H]([C@H](C)C[C@@H]2CC[C@@H](OCCO)[C@H](OC)C2)CC(=O)[C@H](C)/C=C(\C)[C@@H](O)[C@@H](OC)C(=O)[C@H](C)C[C@H](C)/C=C/C=C/C=C/1C [Everolimus] (max 10 µM) | 0.711 | 0.866 | 0.686 | 0.432 | 0.767 | 0.653 | 0.486 | 0.371 | 1.14 | 0.798 | 0.408 | 0.669 | 0.598
4 | CCC(=O)Nc1ccc(C(=O)Nc2ccc(Nc3ncc4c(n3)N(C)c3ccc(C)cc3C(=O)N4C)cc2)cc1 [FMF-03-145-1] | -0.0038 | -0.12 | -0.209 | 0.394 | 0.393 | 1.15 | 0.581 | 0.44 | 0.919 | 1.28 | 0.91 | 0.391 | 0.918
5 | COc1cc(N2CCN(C)CC2)ccc1Nc1ncc2c(n1)N(C)c1ccccc1C(=O)N2CC(F)(F)F [FMF-03-146-1] | 0.874 | 0.898 | 0.999 | 0.0396 | -0.0223 | 0.0296 | 0.0485 | 0.049 | 0.0733 | 0.025 | -0.0411 | 0.0552 | 0.0601
6 | CN1CC[C@H](c2c(O)cc(O)c3c(=O)cc(-c4ccccc4Cl)oc23)[C@H](O)C1 [Flavopiridol] (max 1 µM) | -0.441 | -0.051 | -0.181 | 0.242 | 0.253 | 0.313 | 0.29 | 0.319 | 0.413 | 0.452 | 0.215 | 0.152 | 0.236
7 | CC(C)n1nc(-c2ccc3oc(N)nc3c2)c2c(N)ncnc21 [INK128/MLN0128] (max 3.162 µM) | 0.101 | 0.214 | 0.219 | 0.553 | 0.64 | 0.565 | 0.536 | 0.401 | 1.17 | 1.22 | 0.572 | 0.679 | 0.533
8 | CC(C)NC[C@@H](C(=O)N1CCN(c2ncnc3c2[C@H](C)C[C@H]3O)CC1)c1ccc(Cl)cc1 [Ipatasertib/GDC0068] (max 10 µM) | 0.925 | 0.591 | 0.499 | 0.224 | 0.412 | 0.214 | 0.122 | 0.0249 | 0.456 | 0.933 | 0.0168 | 0.0518 | 0.124
9 | CN(C)C(=O)c1cc2cnc(Nc3ccc(N4CCNCC4)cn3)nc2n1C1CCCC1 [LEE011/Ribociclib] (max 10 µM) | 0.204 | 0.436 | 0.576 | 0.299 | 0.651 | 0.309 | 0.417 | 0.365 | 0.8 | -0.0019 | 0.215 | 0.258 | 0.398
10 | CCNC(=O)c1noc(-c2cc(C(C)C)c(O)cc2O)c1-c1ccc(CN2CCOCC2)cc1 [Luminespib/NVP-AUY922] (max 1 µM) | -0.178 | -0.0637 | -0.293 | 0.704 | 0.535 | 0.601 | 0.624 | 0.633 | 0.774 | 0.962 | 0.6 | 0.362 | 0.536
11 | CCOc1cc2ncc(C#N)c(Nc3ccc(OCc4ccccn4)c(Cl)c3)c2cc1NC(=O)/C=C/CN(C)C [Neratinib/HKI272] (max 3.162 µM) | -0.0957 | 0.51 | 0.205 | 0.091 | 0.0703 | 0.429 | 0.102 | 0.265 | 1.45 | 0.373 | 0.0354 | 0.0964 | 1.08
12 | O=C(c1cc(Cc2n[nH]c(=O)c3ccccc23)ccc1F)N1CCN(C(=O)C2CC2)CC1 [Olaparib/AZD2281] (max 10 µM) | 0.618 | 0.76 | 0.75 | 0.116 | 0.0527 | 0.0536 | 0.0719 | 0.0258 | 0.0102 | 0.0149 | -0.0471 | 0.0567 | 0.0601
13 | CC(=O)O[C@H]1C(=O)[C@@]2(C)[C@H]([C@H](OC(=O)c3ccccc3)[C@]3(O)C[C@H](OC(=O)[C@H](O)[C@@H](NC(=O)c4ccccc4)c4ccccc4)C(C)=C1C3(C)C)[C@]1(OC(C)=O)CO[C@@H]1C[C@@H]2O [Paclitaxel] (max 1 µM) | -0.12 | -0.201 | -0.377 | 0.669 | 0.953 | 0.827 | 0.843 | 0.676 | 0.837 | 0.973 | 0.898 | 0.511 | 0.868
14 | CS(=O)(=O)N1CCN(Cc2cc3nc(-c4cccc5[nH]ncc45)nc(N4CCOCC4)c3s2)CC1 [Pictilisib/GDC0941] (max 10 µM) | 0.305 | 0.2 | 0.0426 | 0.19 | 0.262 | 0.309 | 0.118 | 0.134 | 0.417 | 0.771 | 0.364 | 0.324 | 0.465
15 | O=C1NC(=NCc2cccs2)SC1=Cc1ccc2ncccc2c1 [R0-3306] (max 10 µM) | 0.206 | 0.101 | -0.07 | 0.067 | 0.0858 | 0.0716 | 0.0714 | 0.0677 | 0.239 | 0.0994 | 0.0606 | 0.0473 | 0.113
